We go through 6 molecules from US10941121B2 (AZIENDA OSPEDALIERA UNIVERSITARIA SENESE, priority 2015, dated 2021).

Series [1] concerns Hepatitis C Virus (HCV) replicon system. Description: HCV replicon system, luciferase method in LucUbiNeo-ET cells. The following applies: for EC50: read-out: EC50 (μM) HCV replicon system.
The nature of series [2]: Cytotoxicity, MTT method in LUNET cells. The format is cell-based. The following applies: human; MMT method in LUNET cells; read-out: CC50 (μM) non-infected cells. Here is the method: (§1) Toxicity (CC50) was analysed in the Lunet/HuH7 cells by the addition of 10 μL of MTT (3-(4,5-dimethylthiazol-2-yl)-2,5-diphenyltetrazolium bromide) per well. After 4 h of incubation at 37° C. in a humidified atmosphere with 5% CO2, the amount of formazan produced was quantified spectrophotometrically at 550/620 nm (C. Pannecouque et al, Nature protocol 2008; 3 (3): 427-434). […] These assays were done in duplicate.

Series [3] deals with JEV strain (NJ2008). Briefly: JEV infectious cell culture system, plaque formation assay in BHK-21 cells. The following applies: Japanese encephalitis virus, BHK-21, read-out: JEV EC50.
For series [4], the target named is T1, DDX3 Helicase (Homo sapiens, UniProt O00571). The following applies: read-out: ID50 (μM) against DDX3 Helicase; n.a. = compound not active.
T1 sequence (O00571 whole entry): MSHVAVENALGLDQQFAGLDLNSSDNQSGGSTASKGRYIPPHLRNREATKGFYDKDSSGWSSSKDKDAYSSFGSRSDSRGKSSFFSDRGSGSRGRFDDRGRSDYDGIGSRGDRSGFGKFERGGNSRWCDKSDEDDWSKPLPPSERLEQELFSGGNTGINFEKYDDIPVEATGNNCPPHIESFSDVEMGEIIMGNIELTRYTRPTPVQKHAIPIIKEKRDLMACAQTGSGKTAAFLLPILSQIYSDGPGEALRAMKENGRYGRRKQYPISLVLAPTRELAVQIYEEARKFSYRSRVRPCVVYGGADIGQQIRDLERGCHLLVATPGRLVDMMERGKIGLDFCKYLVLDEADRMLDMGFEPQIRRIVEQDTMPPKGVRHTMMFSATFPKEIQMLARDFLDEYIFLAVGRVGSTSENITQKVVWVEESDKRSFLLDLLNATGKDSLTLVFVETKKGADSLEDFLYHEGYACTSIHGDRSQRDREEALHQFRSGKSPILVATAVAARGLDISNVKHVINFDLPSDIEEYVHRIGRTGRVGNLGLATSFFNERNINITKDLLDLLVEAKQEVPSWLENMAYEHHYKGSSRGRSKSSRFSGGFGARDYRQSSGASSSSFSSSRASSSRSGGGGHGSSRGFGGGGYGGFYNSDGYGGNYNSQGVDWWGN
Series [5] is described as follows: in vitro. The following applies: hamster.
Series [6] concerns HIV. The following applies: EI01D; read-out: EC50 inhibition of viral load of PBMCs infected with HIV; cited from earlier work.
Series [7] in a line: Cytotoxicity in PBMC, CellTiter 96 MTS viability assay. The format is cell-based. The following applies: human, human primary PBMCs.
The subject of series [8] is HIV (PBMC). Briefly: HIV infectious cell culture system in PBMC, HIV-1 RNA in supernatant. The following applies: Human immunodeficiency virus 1, PBMC, 72 h, read-out: EC50 HIV (PBMC) 72 h.
Series [9] in a line: Cytotoxicity in the JEV cell culture system. The following applies: hamster.
Series [10] concerns the target T1, DDX3 Helicase. Description: biochemical.
Series [11] can be described thus: Parallel Artificial Membrane Permeability Assay (PAMPA). The format is in vitro ADME. Here is the method:
Parallel Artificial Membrane Permeability Assay (PAMPA). Donor solution (0.5 mM) was prepared by diluting 1 mM dimethylsulfoxide (DMSO) compound stock solution using phosphate buffer (pH 7.4, 0.025 M). Filters were coated with 5 μL of a 1% (w/v) dodecane solution of phosphatidylcholine prepared from CHCl3 solution 10% w/v, for intestinal permeability. Donor solution (150 μL) was added to each well of the filter plate. To each well of the acceptor plate were added […] (50% DMSO in phosphate buffer). All compounds were tested in three different plates on different days. The sandwich was incubated for 5 h at room temperature under gentle shaking. After the incubation time, the plates were separated, and samples were taken from both receiver and donor sides and analyzed using LC with UV detection at 280 nm.
LC analysis were performed with a Varian Prostar HPLC system (Varian Analytical Instruments, USA) equipped with a binary pump with a manual injection valve and model Prostar 325 UV-VIS Detector.
Permeability (Papp) for PAMPA was calculated according to the following equation, obtained from Wohnsland and Faller and Sugano et al. equation with some modification in order to obtain permeability values in cm s^−1,
where VA is the volume in the acceptor well, VD is the volume in the donor well (cm^3), A is the “effective area” of the membrane (cm^2), t is the incubation time (s) and r the ratio between drug concentration in the acceptor and equilibrium concentration of the drug in the total volume (VD+VA). Drug concentration is estimated by using the peak area integration.
Membrane retentions (%) were calculated according to the following equation: […]
where r is the ratio between drug concentration in the acceptor and equilibrium concentration, D, A, and Eq represented drug concentration in the donor, acceptor and equilibrium solution, respectively.

The nature of series [12]: Cytotoxicity in Huh7 cells, nuclei counts. The following applies: human.
Series [13] can be described thus: Cytotoxicity, MTT method in HuH7.5 cells. The following applies: human, non-infected, read-out: HCV CC50. The format is cell-based. Here is the method: After 4 h of incubation at 37° C. in a humidified atmosphere with 5% CO2, the amount of formazan produced was quantified spectrophotometrically at 550/620 nm (C. Pannecouque et al, Nature protocol 2008; 3 (3): 427-434). […] These assays were done in duplicate.

Series [14] is described as follows: Water Solubility Assay. The following applies: thermodynamic from solid. It is filed as physicochemical. Here is the method: Water Solubility Assay. Each solid compound (1 mg) was added to 1 mL of water. The samples were shaked in a shaker bath at room temperature for 24-36 h. The suspensions were filtered through a 0.45 μm nylon filter (Acrodisc), and the solubilized compound determined by LC-MS-MS assay. For each compound the determination was performed in triplicate.
For the quantification was used an LC-MS system consisted of a Varian apparatus (Varian Inc) including a vacuum solvent degassing unit, two pumps (212-LC), a Triple Quadrupole MSD (Mod. 320-LC) mass spectrometer with ES interface and Varian MS Workstation System Control Vers. 6.9 software. […] The flow rate was 0.2 mL min^−1 and injection volume was 5 μL. The instrument operated in positive mode and parameters were: detector 1850 V, drying gas pressure 25.0 psi, desolvation temperature 300.0° C., nebulizing gas 40.0 psi, needle 5000 V and shield 600 V. Nitrogen was used as nebulizer gas and drying gas. Collision induced dissociation was performed using Argon as the collision gas at a pressure of 1.8 mTorr in the collision cell.

In series [15] the test system is HCV Jc1 (genotype 2a virus). Description: HCV infectious cell culture system, NS5A immunostaining. The following applies: Hepatitis C virus, Huh7.5, read-out: HCV EC50.
Series [16] deals with Lunet/HuH7 cells. Briefly: Cytotoxicity, MTT method in LUNET cells. It is filed as cell-based. The following applies: MMT method in LUNET cells; read-out: CC50 (μM) non-infected cells. How it is done: as §1
The target of series [17] is DDX3 (Homo sapiens, UniProt O00571). The following applies: literature values; cited from earlier work.
Sequence of DDX3 (O00571 whole entry): as above
Series [18] relates to HIV-1 (IIIB). The following applies: read-out: EC50 replication of HIV-1 (IIIB) in MT4-cells; cited from earlier work.
Series [19] relates to MOLT-4 T-lymphocytic. The following applies: cited from earlier work.
For series [20], the system named is human liver microsome (HLM). Description: Microsomal Stability Assay. The following applies: human liver microsomes, 37 °C, 60 min, compound 50 μM; percentage of not metabolized compound.
In series [21] the test system is HIV-1 wild-type reference strain NL4-3. Description: HIV-1 phenotypic assay, MT-2 cells then TZM-bl cells, luciferase. The format is cell-based. The following applies: Human immunodeficiency virus 1, NL43; first cycle in MT-2 cells, additional round in TZM-bl cells.
In series [22] the test system is PRRSV. Briefly: PRRSV infectious cell culture system, plaque formation assay in MARC-145 cells. The format is cell-based. The following applies: Porcine reproductive and respiratory syndrome virus, MARC145; viral titre by plaque formation assay in MARC-145 cells. How it is done: According to the requirement of different experiments, MARC-145 cells were either infected with PRRSV at MOIs of 0.1, 1 or 10, or mock infected with phosphate-buffered saline (PBS). After 1 h incubation at 37° C., unbounded viruses were removed by washing thrice with PBS and cultured in DMEM supplemented with 8% FBS at 37° C. for various lengths of time. For the autophagy induction and inhibition experiments, MARC-145 cells were pretreated with varying concentrations of rapamycin or 3-MA for 4 h before viral infection. MARC-145 cells were then infected with PRRSV at MOI of 1. After 1 h incubation at 37° C., unbounded viruses were removed by washing thrice with PBS and cultured in DMEM supplemented with 2% FBS containing varying concentrations of compound, 3-MA or the corresponding amount of dimethyl sulfoxide (DMSO, control) at 37° C. for 24 h.

Where two headings read alike, the source gives them in different places.

For `CCOP(=O)(OCC)OCCc1cn(-c2ccc(NC(=O)Nc3ccccc3C)cc2)nn1` [Compound 36, diethyl (2-(1-(4-(3-(o-tolyl)ureido)phenyl)-1H-1,2,3-triazol-4-yl)ethyl) phosphate], the EC50 is 75 µM in series [1] (Hepatitis C virus, 48 h) and 21.1 µM in series [3]. For the same molecule, the results for the CC50 in series [2] and in series [5] were > 150 µM and > 50 µM, respectively. Besides, the IC50 in series [4] is 0.9 µM.
Regarding `Cc1ccccc1NC(=O)Nc1cccc([N+](=O)[O-])c1` [EI01D, reference compound], in [1], the “activity against HCV, in words” value is “completely inactive”. The EC50 in [1] (Hepatitis C virus, 48 h) is > 86 µM; in series [6], 10 µM; in [8] it was 10 µM; in [3] it was 10 µM. Further, the CC50 at 72 h in [7] is 100 µM. The CC50 in [2] is 86 µM; in [9] it was > 50 µM. The IC50 in series [4] came out at 1 µM.
Turning to `CCCCc1cn(-c2ccc(NC(=O)Nc3ccccc3C(F)(F)F)cc2)nn1` [Compound 22a, 1-(4-(4-butyl-1H-1,2,3-triazol-1-yl)phenyl)-3-(2-(trifluoromethyl)phenyl)urea], the “activity against HCV, in words” value in series [1] was “best activity”. Also, the EC50 in [1] (Hepatitis C virus, 48 h) turned out to be 0.3 µM; in [15] it was 0.6 µM. For the same molecule, the IC50 in [10] was determined as 0.3 µM. The “PAMPA Papp *10^−6 (cm/s) GI” value in series [11] (phosphatidylcholine in dodecane, pH 7.4, 5 h, room temperature) is on record as 7.47 *10^−6 cm/s. The “PAMPA membrane retention (RM %)” value in series [11] (value in brackets in the PAMPA cell) came out at 23.9%. The values for the CC50 in series [2] and in series [13] were 200 µM and 94.4 µM, respectively. The CC50 at 48 h in series [12] (DENV CC50, Huh7 cells, DENV experiment) was determined as 178 µM; in series [12] (WNV CC50, Huh7 cells, WNV experiment), 145 µM. For the same molecule, the solubility is 0.0372 µM in [14] (experimental aqueous solubility, read-out: LogS (converted)) and 0.107 µg/mL in series [14] (room temperature, 24-36 h, read-out: Aq. Solub.).
In the case of `CCCCCCc1cn(-c2ccc(NC(=O)Nc3ccccc3C(F)(F)F)cc2)nn1` [Compound 8d], the EC50 in [1] (luciferase method in LucUbiNeo-ET cells, 2 days) came out at 0.67 µM. For the same molecule, the CC50 in series [16] came out at 290 µM.
For the molecule `O=C(CN1C(=O)/C(=C/c2cccc(Br)c2)SC1=S)Nc1ccccc1O` [FE15], in series [17], the Ki was 5.4 µM. For the same molecule, the EC50 in series [18] is 86.7 µM. Moreover, the CC50 in series [19] is > 200 µM.
In series [7] (24 h), `CCCCc1cn(-c2cccc(S(=O)(=O)Nc3ccccc3C(F)(F)F)c2)nn1` [Compound 64d, 3-(4-butyl-1H-1,2,3-triazol-1-yl)-N-(2-(trifluoromethyl)phenyl)benzenesulfonamide] displayed a CC50 at 24 h of 2130 µM. This molecule had a CC50 at 48 h in [7] (48 h) of 332 µM. The molecule further yielded a CC50 at 72 h in series [7] of 198 µM. Moreover, the “Metabolic stability (Sability %)” value in series [20] is recorded as 99%. Also, the EC50 in [8] stood at 31 µM; in series [21], 12.7 µM; in series [22], 30 µM; in [3], 6.7 µM. Moreover, the IC50 in [4] came to 0.4 µM. For the same molecule, the CC50 in series [9] is > 50 µM.
